Patent US20160158179A1, “NANOEMULSION THERAPEUTIC COMPOSITIONS AND METHODS OF USING THE SAME” (THE REGENTS OF THE UNIVERSITY OF MICHIGAN, priority 2008, published 2016)
Converted amounts (≈) assume the structure as drawn.

How the values were obtained:
Stenotrophomonas strains = assay: Checkerboard synergy study (FIC/FBC index); format: cell-based, Stenotrophomonas maltophilia; conditions: Stenotrophomonas; in combination with P4075EC+EDTA
Burkholderia strains = assay: Checkerboard synergy study (FIC/FBC index); format: cell-based, Burkholderia cenocepacia; conditions: Burkholderia; in combination with P4075EC+EDTA
Pseudomonas aeruginosa = assay: MIC and MBC determination (CLSI, alamar blue), CF isolates; conditions: Pseudomonas
Burkholderia cenocepacia = assay: as above
[1] = test system: Stenotrophomonas maltophilia; assay: as above
Acinetobacter baumannii = assay: MIC and MBC determination (CLSI, alamar blue); conditions: Acinetobacter
Burkholderia cepacia = assay: MIC determination, CLSI microdilution with alamar blue; format: cell-based; conditions: Burkholderia cepacia (n = 5); nanoemulsions in the presence of 5 mM EDTA
Acinetobacter strains = assay: Checkerboard synergy study (FIC/FBC index); format: cell-based, Acinetobacter baumannii; conditions: Acinetobacter; in combination with P4075EC+EDTA
Proteus mirabilis = assay: MIC determination, CLSI microdilution with alamar blue; format: cell-based; conditions: Proteus mirabilis (n = 5); nanoemulsions in the presence of 5 mM EDTA; in µg/mL

For `NC[C@H]1O[C@H](O[C@H]2[C@H](O)[C@@H](O[C@H]3O[C@H](CO)[C@@H](O)[C@H](N)[C@H]3O)[C@H](N)C[C@@H]2N)[C@H](N)C[C@@H]1O` [Tobramycin], the Overall synergy result (Stenotrophomonas strains) was “No Interference”, the Overall synergy result (Burkholderia strains) was “No Interference” and the “MIC 50” value (Pseudomonas aeruginosa) was 1 µg/mL (≈ 2.14 µM). For the same compound, the “MIC 90” value (Pseudomonas aeruginosa) was 16 µg/mL (≈ 34.2 µM), the “MIC 90” value (Burkholderia cenocepacia; Burkholderia) was greater than 32 µg/mL and the MIC 50 (Burkholderia cenocepacia; Burkholderia cenocepacia) was greater than 32 µg/mL. The MIC 90 (Burkholderia cenocepacia; Burkholderia cenocepacia) was greater than 32 µg/mL, the “MIC 50” value ([1]; Stenotrophomonas) was greater than 32 µg/mL and the “MIC 90” value ([1]; Stenotrophomonas) was greater than 32 µg/mL. For the same compound, the MIC 50 ([1]; Stenotrophomonas maltophilia) was greater than 32 µg/mL, the MIC 90 ([1]; Stenotrophomonas maltophilia) was greater than 32 µg/mL and the “MIC 50” value (Acinetobacter baumannii) was 1 µg/mL (≈ 2.14 µM). The “MIC 90” value (Acinetobacter baumannii) was 16 µg/mL (≈ 34.2 µM), the MIC 50 (Burkholderia cepacia) was 16 µg/mL and the Overall synergy result (Acinetobacter strains) was “No Interference”.

For Piperacillin/tazobactam, the “MIC Range” value (Proteus mirabilis) was “<=0.5-1”.
